Our source for the IC50 values is patent US11028061B2, “Modulators of myocyte lipid accumulation and insulin resistance and methods of use thereof” (Sanford Burnham Prebys Medical Discovery Institute, priority 2015, dated 2021).

Where only a bound is given, the exact number is not on record here.

One assay deals with primary murine skeletal myocytes. The experiment in a line: TAG accumulation in primary murine skeletal myocytes. It counts as cell-based. The note with it: Mus musculus, read-out: Activity Score (IC50), triacylglyceride (TAG) accumulation.
One may read the IC50 as the concentration that gives 50% inhibition. For the molecule `COc1ccc(-c2csc(C(=O)Nc3ccc(OCC(=O)N4CCOCC4)c(OC)c3)n2)cc1` [Cpd. 91, N-(3-methoxy-4-(2-morpholino-2-oxoethoxy)phenyl)-4-(4-methoxyphenyl)thiazole-2-carboxamide], the IC50 is > 10000 nM.
Regarding `CCNc1ccc(C(=O)Nc2nc(-c3ccc(OC)cc3)cs2)cc1OCCO` [Cpd. 99, 4-(ethylamino)-3-(2-hydroxyethoxy)-N-(4-(4-methoxyphenyl)thiazol-2-yl)benzamide], the IC50 lay in the range of 1000 to 10000 nM.

Staying with this assay, now noted: Mus musculus; primary murine skeletal myocytes; read-out: Activity Score (IC50), triacylglyceride (TAG) accumulation.
As for `O=C(Nc1nc(-c2ccc(OC(F)F)cc2)cs1)c1ccc(OCC(=O)N2CCOCC2)cc1` [Cpd. 40, N-(4-(4-(difluoromethoxy)phenyl)thiazol-2-yl)-4-(2-morpholino-2-oxoethoxy)benzamide], the IC50 is < 1000 nM.
Same read-out and setting: for `COc1ccc(-c2csc(NC(=O)c3ccc(OCC(=O)N4CCOCC4)cc3)n2)cc1` [Cpd. 41, N-(4-(4-methoxyphenyl)thiazol-2-yl)-4-(2-morpholino-2-oxoethoxy)benzamide] the value was < 1000 nM.
As for `COCCOc1ccc(-c2csc(NC(=O)c3ccc(OCC(=O)N4CCOCC4)cc3)n2)cc1` [Cpd. 43, N-(4-(4-(2-methoxyethoxy)phenyl)thiazol-2-yl)-4-(2-morpholino-2-oxoethoxy)benzamide], the IC50 is < 1000 nM.
The same measure, in the same setting: for `CCc1ccc(-c2csc(NC(=O)c3ccc(OCC(=O)N4CCOCC4)cc3)n2)cc1` [Cpd. 44, N-(4-(4-ethylphenyl)thiazol-2-yl)-4-(2-morpholino-2-oxoethoxy)benzamide] the value was < 1000 nM.
Still for that read-out and setting: for `CC(C)c1ccc(-c2csc(NC(=O)c3ccc(OCC(=O)N4CCOCC4)cc3)n2)cc1` [Cpd. 45, N-(4-(4-isopropylphenyl)thiazol-2-yl)-4-(2-morpholino-2-oxoethoxy)benzamide] the value was < 1000 nM; for `O=C(Nc1nc(-c2ccc(F)cc2)cs1)c1ccc(OCC(=O)N2CCOCC2)cc1` [Cpd. 46, N-(4-(4-fluorophenyl)thiazol-2-yl)-4-(2-morpholino-2-oxoethoxy)benzamide], < 1000 nM; for `Cc1ccccc1-c1csc(NC(=O)c2ccc(OCC(=O)N3CCOCC3)cc2)n1` [Cpd. 47, 4-(2-morpholino-2-oxoethoxy)-N-(4-(o-tolyl)thiazol-2-yl)benzamide], < 1000 nM.
Turning to `O=C(Nc1nc(-c2ccccc2Cl)cs1)c1ccc(OCC(=O)N2CCOCC2)cc1` [Cpd. 48, N-(4-(2-chlorophenyl)thiazol-2-yl)-4-(2-morpholino-2-oxoethoxy)benzamide], the IC50 is < 1000 nM.
Still for that read-out and setting: for `O=C(Nc1nc(-c2ccccc2F)cs1)c1ccc(OCC(=O)N2CCOCC2)cc1` [Cpd. 49, N-(4-(2-fluorophenyl)thiazol-2-yl)-4-(2-morpholino-2-oxoethoxy)benzamide] the value was < 1000 nM.
Regarding `COc1ccccc1-c1csc(NC(=O)c2ccc(OCC(=O)N3CCOCC3)cc2)n1` [Cpd. 50, N-(4-(2-methoxyphenyl)thiazol-2-yl)-4-(2-morpholino-2-oxoethoxy)benzamide], the half-inhibitory concentration (IC50) is < 1000 nM.
Same read-out and setting: the value for `Cc1cccc(-c2csc(NC(=O)c3ccc(OCC(=O)N4CCOCC4)cc3)n2)c1` [Cpd. 51, 4-(2-morpholino-2-oxoethoxy)-N-(4-(m-tolyl)thiazol-2-yl)benzamide] was < 1000 nM; that for `O=C(Nc1nc(-c2cccc(Cl)c2)cs1)c1ccc(OCC(=O)N2CCOCC2)cc1` [Cpd. 52, N-(4-(3-chlorophenyl)thiazol-2-yl)-4-(2-morpholino-2-oxoethoxy)benzamide] was < 1000 nM.
As to `O=C(Nc1nc(-c2cccc(F)c2)cs1)c1ccc(OCC(=O)N2CCOCC2)cc1` [Cpd. 53, N-(4-(3-fluorophenyl)thiazol-2-yl)-4-(2-morpholino-2-oxoethoxy)benzamide], the IC50 is < 1000 nM.
In the case of `COc1ccc(-c2csc(NC(=O)c3ccc(OCC(=O)N4CCOCC4)cc3)n2)c(Cl)c1` [Cpd. 54, N-(4-(2-chloro-4-methoxyphenyl)thiazol-2-yl)-4-(2-morpholino-2-oxoethoxy)benzamide], the IC50 was < 1000 nM.
Still for that read-out and setting: the value for `CC(C)Oc1ccc(-c2csc(NC(=O)c3ccc(OCC(=O)N4CCOCC4)cc3)n2)c(Cl)c1` [Cpd. 55, N-(4-(2-chloro-4-isopropoxyphenyl)thiazol-2-yl)-4-(2-morpholino-2-oxoethoxy)benzamide] was < 1000 nM.
Still for that read-out and setting: for `COc1ccc(-c2csc(NC(=O)c3ccc(OCC(=O)N4CCOCC4)cc3)n2)c(F)c1` [Cpd. 56, N-(4-(2-fluoro-4-methoxyphenyl)thiazol-2-yl)-4-(2-morpholino-2-oxoethoxy)benzamide] the value was < 1000 nM; for `COc1ccc(-c2csc(NC(=O)c3ccc(OCC(N)=O)cc3)n2)c(Cl)c1` [Cpd. 57, 4-(2-amino-2-oxoethoxy)-N-(4-(2-chloro-4-methoxyphenyl)thiazol-2-yl)benzamide], 1000 to 10000 nM; for `CNC(=O)COc1ccc(C(=O)Nc2nc(-c3ccc(OC)cc3Cl)cs2)cc1` [Cpd. 58, N-(4-(2-chloro-4-methoxyphenyl)thiazol-2-yl)-4-(2-(methylamino)-2-oxoethoxy)benzamide], < 1000 nM.
Same read-out and setting: the value for `CCNC(=O)COc1ccc(C(=O)Nc2nc(-c3ccc(OC)cc3Cl)cs2)cc1` [Cpd. 59, N-(4-(2-chloro-4-methoxyphenyl)thiazol-2-yl)-4-(2-(ethylamino)-2-oxoethoxy)benzamide] was < 1000 nM; that for `COc1ccc(-c2csc(NC(=O)c3ccc(OCC(=O)N(C)C)cc3)n2)c(Cl)c1` [Cpd. 60, N-(4-(2-chloro-4-methoxyphenyl)thiazol-2-yl)-4-(2-(dimethylamino)-2-oxoethoxy)benzamide] was < 1000 nM; that for `COc1ccc(-c2csc(NC(=O)c3ccc(NCC(=O)N4CCOCC4)c(OC)c3)n2)cc1` [Cpd. 75, 3-methoxy-N-(4-(4-methoxyphenyl)thiazol-2-yl)-4-((2-morpholino-2-oxoethyl)amino)benzamide] was < 1000 nM.
Consider `COc1ccc(-c2csc(NC(=O)CCC(=O)N3CCOc4ccccc43)n2)cc1` [Cpd. 81, 4-(2,3-dihydro-4H-benzo[b][1,4]oxazin-4-yl)-N-(4-(4-methoxyphenyl)thiazol-2-yl)-4-oxobutanamide], for which the IC50 is < 1000 nM.
The same measure, in the same setting: the value for `COc1ccc(-c2csc(NC(=O)CCC(=O)N3CCOCC3)n2)cc1` [Cpd. 82, N-(4-(4-methoxyphenyl)thiazol-2-yl)-4-morpholino-4-oxobutanamide] was 1000 to 10000 nM.
Still for that read-out and setting: the value for `COc1cc(C(=O)Nc2cccc(-c3ccccc3)c2)ccc1OCC(=O)N1CCOCC1` [Cpd. 83, N-([1,1′-biphenyl]-3-yl)-3-methoxy-4-(2-morpholino-2-oxoethoxy)benzamide] was > 10000 nM; that for `COc1cc(C(=O)Nc2nc(-c3ccccc3)c(Cc3ccccc3)s2)ccc1OCC(=O)N1CCOCC1` [Cpd. 84, N-(5-benzyl-4-phenylthiazol-2-yl)-3-methoxy-4-(2-morpholino-2-oxoethoxy)benzamide] was < 1000 nM.
Take `COc1cc(C(=O)Nc2nc(Cc3ccccc3)cs2)ccc1OCC(=O)N1CCOCC1` [Cpd. 85, N-(4-benzylthiazol-2-yl)-3-methoxy-4-(2-morpholino-2-oxoethoxy)benzamide]: the IC50 lay in the range of 1000 to 10000 nM.
On to `O=C(Nc1nc2ccccc2s1)c1ccc(OCC(=O)N2CCOCC2)cc1` [Cpd. 87, N-(benzo[d]thiazol-2-yl)-4-(2-morpholino-2-oxoethoxy)benzamide], for which the IC50 is > 10000 nM.
With `COc1ccc2nc(NC(=O)c3ccc(OCC(=O)N4CCOCC4)cc3)sc2c1` [Cpd. 88, N-(6-methoxybenzo[d]thiazol-2-yl)-4-(2-morpholino-2-oxoethoxy)benzamide], the concentration for half-maximal inhibition (IC50) is 1000 to 10000 nM.
For `COc1ccc(-c2csc(NCc3ccc(OCC(=O)N4CCOCC4)c(OC)c3)n2)cc1` [Cpd. 89, 2-(2-methoxy-4-(((4-(4-methoxyphenyl)thiazol-2-yl)amino)methyl)phenoxy)-1-morpholinoethan-1-one], the IC50 was 1000 to 10000 nM.
On the same count and under the same terms, for `COc1ccc(-c2csc(NC(=O)c3ccc(OCCN4CCOCC4)c(OC)c3)n2)cc1` [Cpd. 90, 3-methoxy-N-(4-(4-methoxyphenyl)thiazol-2-yl)-4-(2-morpholinoethoxy)benzamide] the value was 1000 to 10000 nM; for `COc1ccc(-c2csc(NC(=O)c3ccc(OCC(=O)N4CCOCC4)cn3)n2)cc1` [Cpd. 92, N-(4-(4-methoxyphenyl)thiazol-2-yl)-5-(2-morpholino-2-oxoethoxy)picolinamide], > 10000 nM.
On the same count and under the same terms, the value for `COc1ccc(-c2csc(NC(=O)c3ccc(OCC(=O)N4CCOCC4)nc3)n2)cc1` [Cpd. 93, N-(4-(4-methoxyphenyl)thiazol-2-yl)-6-(2-morpholino-2-oxoethoxy)nicotinamide] was > 10000 nM.
On the same count and under the same terms, for `COc1ccc(-c2csc(NC(=O)c3cccc(OCC(=O)N4CCOCC4)c3)n2)cc1` [Cpd. 94, N-(4-(4-methoxyphenyl)thiazol-2-yl)-3-(2-morpholino-2-oxoethoxy)benzamide] the value was 1000 to 10000 nM; for `O=C(Nc1nc(-c2ccccc2)cs1)c1cccc(OCC(=O)N2CCOCC2)c1` [Cpd. 95, 3-(2-morpholino-2-oxoethoxy)-N-(4-phenylthiazol-2-yl)benzamide], 1000 to 10000 nM.
Consider `COc1cccc(-c2csc(NC(=O)c3cccc(OCC(=O)N4CCOCC4)c3)n2)c1` [Cpd. 96, N-(4-(3-methoxyphenyl)thiazol-2-yl)-3-(2-morpholino-2-oxoethoxy)benzamide], for which the IC50 lay within 1000 to 10000 nM.
Still for that read-out and setting: the value for `COc1ccc(-c2csc(NC(=O)C3CCC(OCC(=O)N4CCOCC4)CC3)n2)cc1` (stereo not shown) [Cpd. 97, N-(4-(4-methoxyphenyl)thiazol-2-yl)-4-(2-morpholino-2-oxoethoxy)cyclohexane-1-carboxamide] was > 10000 nM.
On the same count and under the same terms, for `COc1ccc(Cc2cnc(NC(=O)c3ccc(OCC(=O)N4CCOCC4)c(OC)c3)s2)cc1` [Cpd. 98, 3-methoxy-N-(5-(4-methoxybenzyl)thiazol-2-yl)-4-(2-morpholino-2-oxoethoxy)benzamide] the value was 1000 to 10000 nM.
On the same count and under the same terms, for `COc1cc(C(=O)Nc2ncc(Cc3cccc(C(F)(F)F)c3)s2)ccc1OCC(=O)N1CCOCC1` [Cpd. 100, 3-methoxy-4-(2-morpholino-2-oxoethoxy)-N-(5-(3-(trifluoromethyl)benzyl)thiazol-2-yl)benzamide] the value was > 10000 nM.
